± gives the expanded uncertainty stated by the source.
Legend:
[1] = Liquid
[2] = φn = volume fraction of the nth substance listed; conditions: 101 kPa, Liquid; for viscosity: Capillary tube (Ostwald / Ubbelohde) method; for mass density: Pycnometric method

Row | viscosity ([1]; 298.15 K, 101.33 kPa, Capillary tube (Ostwald / Ubbelohde) method) | mass density ([1]; 298.15 K, 101.33 kPa, Pycnometric method) | Normal boiling temperature ([1]; Distillation) | viscosity ([2]; 298.15 K, φ2 = 0.3) | viscosity ([2]; 298.15 K, φ2 = 0.6) | viscosity ([2]; 298.15 K, φ2 = 0.9) | mass density ([2]; 298.15 K, φ2 = 0.3) | mass density ([2]; 298.15 K, φ2 = 0.6) | mass density ([2]; 298.15 K, φ2 = 0.9) | viscosity ([2]; 308.15 K, φ2 = 0.3) | viscosity ([2]; 308.15 K, φ2 = 0.6) | viscosity ([2]; 308.15 K, φ2 = 0.9) | mass density ([2]; 308.15 K, φ2 = 0.3) | mass density ([2]; 308.15 K, φ2 = 0.6) | mass density ([2]; 308.15 K, φ2 = 0.9) | SMILES
1 | 0.575 ± 0.012 mPa·s | 1058.6 ± 1.2 kg/m3 | 75 ± 1 °C | – | – | – | – | – | – | – | – | – | – | – | – | C1COCO1 [1,3-dioxolane]
2 | – | – | – | 0.9716 ± 0.19 mPa·s | 1.357 ± 0.27 mPa·s | 0.9415 ± 0.19 mPa·s | 1049.2 ± 6 kg/m3 | 1039.1 ± 6 kg/m3 | 1009.2 ± 6 kg/m3 | 0.9314 ± 0.19 mPa·s | 1.133 ± 0.23 mPa·s | 0.822 ± 0.16 mPa·s | 1041.1 ± 6 kg/m3 | 1030.7 ± 6 kg/m3 | 1003.3 ± 6 kg/m3 | C1COCO1 [1,3-dioxolane] + O

From the NIST ThermoML archive (doi:10.1021/je900709n)
